What follows are compounds tested against full-length human ATR protein (Homo sapiens (Human), UniProt Q13535) (assay: Binding assay ATR (TR-FRET tracer displacement)). Details: tracer A, TR-FRET; read-out: ATR binding (tracer A) IC50.
In short: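 Full-length human GST-ATR co-purified with ATRIP, pre-complexed 30 min at 22 °C with anti-GST-Tb antibody, then pre-bound with compound 10 min. Tracer A or B added (2 µl of 100 nM solution), 30 min at 22 °C.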

Sequence of full-length human ATR protein (Q13535 other isoform, or with tags, fused parts or gaps): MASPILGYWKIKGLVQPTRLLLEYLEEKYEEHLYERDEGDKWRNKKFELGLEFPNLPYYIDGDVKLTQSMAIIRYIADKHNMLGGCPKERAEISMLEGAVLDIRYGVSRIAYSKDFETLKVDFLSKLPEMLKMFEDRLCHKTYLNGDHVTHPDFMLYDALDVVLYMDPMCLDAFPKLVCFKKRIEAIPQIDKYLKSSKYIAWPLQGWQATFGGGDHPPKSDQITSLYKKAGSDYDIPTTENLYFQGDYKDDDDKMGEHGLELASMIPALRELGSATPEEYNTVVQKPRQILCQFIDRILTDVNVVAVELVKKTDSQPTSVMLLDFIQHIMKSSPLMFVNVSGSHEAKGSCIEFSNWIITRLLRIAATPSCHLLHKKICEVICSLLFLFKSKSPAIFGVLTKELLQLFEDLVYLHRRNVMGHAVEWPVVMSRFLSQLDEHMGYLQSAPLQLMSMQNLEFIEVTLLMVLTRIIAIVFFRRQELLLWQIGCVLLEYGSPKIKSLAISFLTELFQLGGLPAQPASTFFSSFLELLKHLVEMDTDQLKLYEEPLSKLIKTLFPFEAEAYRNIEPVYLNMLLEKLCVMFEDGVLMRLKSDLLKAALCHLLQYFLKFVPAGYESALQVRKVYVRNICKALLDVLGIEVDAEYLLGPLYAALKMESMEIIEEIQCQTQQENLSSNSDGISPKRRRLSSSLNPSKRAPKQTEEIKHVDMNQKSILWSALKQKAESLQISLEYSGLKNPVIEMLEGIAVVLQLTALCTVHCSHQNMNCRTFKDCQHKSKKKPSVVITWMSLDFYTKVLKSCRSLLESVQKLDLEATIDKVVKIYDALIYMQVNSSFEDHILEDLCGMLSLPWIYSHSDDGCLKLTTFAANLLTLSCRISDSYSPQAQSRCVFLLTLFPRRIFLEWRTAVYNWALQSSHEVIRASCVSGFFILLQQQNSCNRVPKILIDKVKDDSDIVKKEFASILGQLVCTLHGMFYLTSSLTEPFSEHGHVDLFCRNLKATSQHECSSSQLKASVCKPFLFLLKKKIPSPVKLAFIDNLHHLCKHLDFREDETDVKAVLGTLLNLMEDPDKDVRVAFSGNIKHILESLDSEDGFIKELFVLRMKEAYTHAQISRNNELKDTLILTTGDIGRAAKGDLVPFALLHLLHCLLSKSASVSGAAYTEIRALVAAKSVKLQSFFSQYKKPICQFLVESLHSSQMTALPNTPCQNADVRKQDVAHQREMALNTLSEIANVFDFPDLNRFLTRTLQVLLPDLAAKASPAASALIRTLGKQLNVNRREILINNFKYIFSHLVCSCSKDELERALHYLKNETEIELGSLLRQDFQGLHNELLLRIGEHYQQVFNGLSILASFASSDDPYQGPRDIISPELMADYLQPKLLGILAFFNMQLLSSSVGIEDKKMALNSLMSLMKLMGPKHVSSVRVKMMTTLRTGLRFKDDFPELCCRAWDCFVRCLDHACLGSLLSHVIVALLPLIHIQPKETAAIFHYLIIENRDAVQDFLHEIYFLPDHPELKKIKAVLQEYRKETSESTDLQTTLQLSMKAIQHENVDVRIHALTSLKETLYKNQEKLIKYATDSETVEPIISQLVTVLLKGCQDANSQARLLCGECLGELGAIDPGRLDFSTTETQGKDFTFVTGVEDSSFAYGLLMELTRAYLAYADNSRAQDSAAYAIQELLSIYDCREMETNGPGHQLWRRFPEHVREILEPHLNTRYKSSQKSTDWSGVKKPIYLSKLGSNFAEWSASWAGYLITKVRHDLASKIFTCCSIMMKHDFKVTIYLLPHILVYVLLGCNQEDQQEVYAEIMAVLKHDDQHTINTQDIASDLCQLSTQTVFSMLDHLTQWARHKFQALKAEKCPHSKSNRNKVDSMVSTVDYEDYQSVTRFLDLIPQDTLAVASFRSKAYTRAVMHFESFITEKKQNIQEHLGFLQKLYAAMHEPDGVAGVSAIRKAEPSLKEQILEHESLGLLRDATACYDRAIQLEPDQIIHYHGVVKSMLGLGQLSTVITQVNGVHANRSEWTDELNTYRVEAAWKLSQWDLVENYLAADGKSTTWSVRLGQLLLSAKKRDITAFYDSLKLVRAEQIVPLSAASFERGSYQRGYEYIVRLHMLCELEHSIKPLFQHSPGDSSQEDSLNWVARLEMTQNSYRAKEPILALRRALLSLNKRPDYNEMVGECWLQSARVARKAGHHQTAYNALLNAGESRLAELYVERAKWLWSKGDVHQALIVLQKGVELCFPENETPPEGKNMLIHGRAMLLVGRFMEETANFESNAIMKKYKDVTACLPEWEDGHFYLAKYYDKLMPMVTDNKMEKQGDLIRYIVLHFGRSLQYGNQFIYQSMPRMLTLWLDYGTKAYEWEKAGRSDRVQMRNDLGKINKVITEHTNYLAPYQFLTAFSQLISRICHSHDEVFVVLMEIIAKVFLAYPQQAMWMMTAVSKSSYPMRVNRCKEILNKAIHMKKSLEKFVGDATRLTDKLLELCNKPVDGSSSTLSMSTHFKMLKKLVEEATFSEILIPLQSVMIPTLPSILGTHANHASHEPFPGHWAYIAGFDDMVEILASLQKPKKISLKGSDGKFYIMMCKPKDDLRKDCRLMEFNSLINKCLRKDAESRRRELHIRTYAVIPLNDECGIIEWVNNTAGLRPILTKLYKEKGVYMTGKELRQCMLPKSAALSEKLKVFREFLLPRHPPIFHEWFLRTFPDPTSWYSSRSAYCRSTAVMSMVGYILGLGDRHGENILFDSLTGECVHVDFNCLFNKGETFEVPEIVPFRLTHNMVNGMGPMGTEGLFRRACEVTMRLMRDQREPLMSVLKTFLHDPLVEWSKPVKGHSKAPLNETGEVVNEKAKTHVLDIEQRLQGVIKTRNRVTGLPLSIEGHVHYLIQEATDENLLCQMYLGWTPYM
Sequence of full-length human ATR protein (Q8WXE1 other isoform, or with tags, fused parts or gaps partner): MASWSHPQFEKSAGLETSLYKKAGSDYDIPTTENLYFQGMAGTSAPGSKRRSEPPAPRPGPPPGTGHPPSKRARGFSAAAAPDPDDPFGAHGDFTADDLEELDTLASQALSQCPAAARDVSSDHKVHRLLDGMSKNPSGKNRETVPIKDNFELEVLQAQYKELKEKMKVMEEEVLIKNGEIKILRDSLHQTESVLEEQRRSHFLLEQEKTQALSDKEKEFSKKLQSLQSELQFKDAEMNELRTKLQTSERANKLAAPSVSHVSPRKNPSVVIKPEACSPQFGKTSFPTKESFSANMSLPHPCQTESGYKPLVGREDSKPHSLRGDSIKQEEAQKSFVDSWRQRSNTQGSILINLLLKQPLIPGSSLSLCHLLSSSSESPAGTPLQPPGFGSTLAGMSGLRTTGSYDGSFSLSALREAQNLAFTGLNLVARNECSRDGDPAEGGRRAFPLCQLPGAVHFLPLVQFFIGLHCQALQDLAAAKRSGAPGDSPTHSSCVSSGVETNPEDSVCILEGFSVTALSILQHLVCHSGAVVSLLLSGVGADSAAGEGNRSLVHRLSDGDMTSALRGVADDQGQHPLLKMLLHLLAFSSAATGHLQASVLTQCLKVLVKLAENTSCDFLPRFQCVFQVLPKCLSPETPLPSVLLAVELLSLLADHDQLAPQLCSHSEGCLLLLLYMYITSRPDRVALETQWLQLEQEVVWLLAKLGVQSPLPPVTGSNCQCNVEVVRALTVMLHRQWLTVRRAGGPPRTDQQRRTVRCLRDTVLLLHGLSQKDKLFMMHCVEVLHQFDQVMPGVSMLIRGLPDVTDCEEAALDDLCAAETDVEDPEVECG

Row | SMILES | IC50 [nM]
1 | CC(C)(O)c1cc(N2CCOCC2)nc2c(-c3ccn[nH]3)nccc12 [Example 173, 2-[2-(morpholin-4-yl)-8-(1H-pyrazol-5-yl)-1,7-naphthyridin-4-yl]propan-2-ol] | 205
2 | CN(c1cccc(F)c1)c1cc(N2CCOCC2)nc2c(-c3ccn[nH]3)nccc12 [Example 424, N-(3-fluorophenyl)-N-methyl-2-(morpholin-4-yl)-8-(1H-pyrazol-5-yl)-1,7-naphthyridin-4-amine] | 241
3 | Fc1cccc(-c2cc(N3CCOCC3)nc3c(-c4ccn[nH]4)nccc23)c1 [Example 298, 4-(3-fluorophenyl)-2-(morpholin-4-yl)-8-(1H-pyrazol-5-yl)-1,7-naphthyridine] | 59.2
4 | C[C@@H]1COCCN1c1cc(C2=CCSCC2)c2ccnc(-c3ccn[nH]3)c2n1 [Example 108, 4-(3,6-dihydro-2H-thiopyran-4-yl)-2-[(3R)-3-methylmorpholin-4-yl]-8-(1H-pyrazol-5-yl)-1,7-naphthyridine] | 11.5
5 | Cc1ccsc1-c1cc(N2CCOCC2)nc2c(-c3ccn[nH]3)nccc12 [Example 373, 4-(3-methylthiophen-2-yl)-2-(morpholin-4-yl)-8-(1H-pyrazol-5-yl)-1,7-naphthyridine] | 38.1
6 | c1ccc2c(-c3cc(N4CCOCC4)nc4c(-c5ccn[nH]5)nccc34)cncc2c1 [Example 363, 4-(isoquinolin-4-yl)-2-(morpholin-4-yl)-8-(1H-pyrazol-5-yl)-1,7-naphthyridine] | 191
7 | Cc1ccnc(F)c1-c1cc(N2CCOC[C@H]2C)nc2c(-c3ccn[nH]3)nccc12 [Example 90, 4-(2-fluoro-4-methylpyridin-3-yl)-2-[(3R)-3-methylmorpholin-4-yl]-8-(1H-pyrazol-5-yl)-1,7-naphthyridine] | 10.6
8 | COc1cc(-c2cc(N3CCOCC3)nc3c(-c4ccn[nH]4)nccc23)ccn1 [Example 351, 4-(2-methoxypyridin-4-yl)-2-(morpholin-4-yl)-8-(1H-pyrazol-5-yl)-1,7-naphthyridine] | 154
9 | O=C1OCCCN1c1cc(N2CCOCC2)nc2c(-c3ccn[nH]3)nccc12 [Example 225, 3-[2-(morpholin-4-yl)-8-(1H-pyrazol-5-yl)-1,7-naphthyridin-4-yl]-1,3-oxazinan-2-one] | 447
10 | Cc1ncc(-c2cc(N3CCOC[C@H]3C)nc3c(-c4ccn[nH]4)nccc23)cc1F [Example 233, 4-(5-fluoro-6-methylpyridin-3-yl)-2-[(3R)-3-methylmorpholin-4-yl]-8-(1H-pyrazol-5-yl)-1,7-naphthyridine] | 42
11 | C[C@@H]1COCCN1c1cc(-c2ccnc(N3CCOCC3)c2F)c2ccnc(-c3ccn[nH]3)c2n1 [Example 223, 4-[3-fluoro-2-(morpholin-4-yl)pyridin-4-yl]-2-[(3R)-3-methylmorpholin-4-yl]-8-(1H-pyrazol-5-yl)-1,7-naphthyridine] | 124
12 | C[C@@H]1COCCN1c1cc(C(C)(C)O)c2ccnc(-c3ccn[nH]3)c2n1 [Example 128, 2-{2-[(3R)-3-methylmorpholin-4-yl]-8-(1H-pyrazol-5-yl)-1,7-naphthyridin-4-yl}propan-2-ol] | 32.6
13 | CN(c1ccc(F)cc1)c1cc(N2CCOCC2)nc2c(-c3ccn[nH]3)nccc12 [Example 431, N-(4-fluorophenyl)-N-methyl-2-(morpholin-4-yl)-8-(1H-pyrazol-5-yl)-1,7-naphthyridin-4-amine] | 34.7
14 | Clc1ccccc1-c1cc(N2CCOCC2)nc2c(-c3ccn[nH]3)nccc12 [Example 333, 4-(2-chlorophenyl)-2-(morpholin-4-yl)-8-(1H-pyrazol-5-yl)-1,7-naphthyridine] | 25.3
15 | NC(=O)c1cc(N2CCOCC2)nc2c(-c3cc[nH]n3)nccc12 [Example 36, 2-morpholin-4-yl-8-(1H-pyrazol-3-yl)-[1,7]naphthyridine-4-carboxamide] | 1500
16 | CN(c1ccccc1)c1cc(N2CCOCC2)nc2c(-c3ccn[nH]3)nccc12 [Example 410, N-methyl-2-(morpholin-4-yl)-N-phenyl-8-(1H-pyrazol-5-yl)-1,7-naphthyridin-4-amine] | 153
17 | Cc1cc(S(C)(=O)=O)ncc1-c1cc(N2CCOC[C@H]2C)nc2c(-c3ccn[nH]3)nccc12 [Example 79, 4-[4-methyl-6-(methylsulfonyl)pyridin-3-yl]-2-[(3R)-3-methylmorpholin-4-yl]-8-(1H-pyrazol-5-yl)-1,7-naphthyridine] | 12
18 | Cc1nc(F)ccc1-c1cc(N2CCOC[C@H]2C)nc2c(-c3ccn[nH]3)nccc12 [Example 97, 4-(6-fluoro-2-methylpyridin-3-yl)-2-[(3R)-3-methylmorpholin-4-yl]-8-(1H-pyrazol-5-yl)-1,7-naphthyridine] | 13.9
19 | CN1CCN(c2cc(N3CCOCC3)nc3c(-c4ccn[nH]4)nccc23)CC1 [Example 182, 4-(4-methylpiperazin-1-yl)-2-(morpholin-4-yl)-8-(1H-pyrazol-5-yl)-1,7-naphthyridine] | 632

Row | SMILES | IC50 [nM]
20 | Cc1cccc(-c2cc(N3CCOC[C@H]3C)nc3c(-c4ccn[nH]4)nccc23)n1 [Example 164, 2-[(3R)-3-methylmorpholin-4-yl]-4-(6-methylpyridin-2-yl)-8-(1H-pyrazol-5-yl)-1,7-naphthyridine] | 161
21 | C[C@@H]1COCCN1c1cc(C(N)=O)c2ccnc(-c3cc[nH]n3)c2n1 [Example 285, 2-[(3R)-3-methylmorpholin-4-yl]-8-(1H-pyrazol-3-yl)-1,7-naphthyridine-4-carboxamide] | 509
22 | c1cc(-c2nccc3c(-c4ccc(N5CCOCC5)nc4)cc(N4CCOCC4)nc23)[nH]n1 [Example 369, 2-(morpholin-4-yl)-4-[6-(morpholin-4-yl)pyridin-3-yl]-8-(1H-pyrazol-5-yl)-1,7-naphthyridine] | 115
23 | C[C@@H]1COCCN1c1cc(N=S2(=O)CCCC2)c2ccnc(-c3ccn[nH]3)c2n1 [Example 137, N-{2-[(3R)-3-methylmorpholin-44-yl]-8-(1H-pyrazol-5-yl)-1,7-naphthyridin-4-yl}tetrahydro-1H-1λ^4-thiophen-1-imine 1-oxide] | 26
24 | C[C@@H]1COCCN1c1cc(-c2ccsc2Cl)c2ccnc(-c3ccn[nH]3)c2n1 [Example 236, 4-(2-chlorothiophen-3-yl)-2-[(3R)-3-methylmorpholin-4-yl]-8-(1H-pyrazol-5-yl)-1,7-naphthyridine] | 28.2
25 | FC(F)(F)c1cccc(-c2cc(N3CCOCC3)nc3c(-c4ccn[nH]4)nccc23)c1 [Example 303, 2-(morpholin-4-yl)-8-(1H-pyrazol-5-yl)-4-[3-(trifluoromethyl)phenyl]-1,7-naphthyridine] | 86.1
26 | Cc1csc(-c2cc(N3CCOC[C@H]3C)nc3c(-c4ccn[nH]4)nccc23)c1 [Example 239, 2-[(3R)-3-methylmorpholin-4-yl]-4-(4-methylthiophen-2-yl)-8-(1H-pyrazol-5-yl)-1,7-naphthyridine] | 20.3
27 | O=c1cc(-c2cc(N3CCOCC3)nc3c(-c4ccn[nH]4)nccc23)cc[nH]1 [Example 22, 4-[2-(morpholin-4-yl)-8-(1H-pyrazol-5-yl)-1,7-naphthyridin-4-yl]pyridin-2(1H)-one] | 465
28 | COc1cccc(OC)c1-c1cc(N2CCOCC2)nc2c(-c3ccn[nH]3)nccc12 [Example 342, 4-(2,6-dimethoxyphenyl)-2-(morpholin-4-yl)-8-(1H-pyrazol-5-yl)-1,7-naphthyridine] | 2770
29 | COc1ncc(C(F)(F)F)cc1-c1cc(N2CCOCC2)nc2c(-c3ccn[nH]3)nccc12 [Example 404, 4-[2-methoxy-5-(trifluoromethyl)pyridin-3-yl]-2-(morpholin-4-yl)-8-(1H-pyrazol-5-yl)-1,7-naphthyridine] | 424
30 | c1ccc(-c2ccccc2-c2cc(N3CCOCC3)nc3c(-c4ccn[nH]4)nccc23)cc1 [Example 345, 4-(biphenyl-2-yl)-2-(morpholin-4-yl)-8-(1H-pyrazol-5-yl)-1,7-naphthyridine] | 55.6
31 | Cc1sccc1-c1cc(N2CCOC[C@H]2C)nc2c(-c3ccn[nH]3)nccc12 [Example 103, 2-[(3R)-3-methylmorpholin-4-yl]-4-(2-methyl-3-thienyl)-8-(1H-pyrazol-5-yl)-1,7-naphthyridine] | 10.1
32 | c1cc(-c2nccc3c(-c4cc[nH]n4)cc(N4CCOCC4)nc23)[nH]n1 [Example 387, 2-(morpholin-4-yl)-4-(1H-pyrazol-3-yl)-8-(1H-pyrazol-5-yl)-1,7-naphthyridine] | 218
33 | Fc1cnccc1-c1cc(N2CCOCC2)nc2c(-c3ccn[nH]3)nccc12 [Example 365, 4-(3-fluoropyridin-4-yl)-2-(morpholin-4-yl)-8-(1H-pyrazol-5-yl)-1,7-naphthyridine] | 103
34 | Cc1ccc(-c2cc(N3CCOC[C@H]3C)nc3c(-c4ccn[nH]4)nccc23)cn1 [Example 88, 2-[(3R)-3-methylmorpholin-4-yl]-4-(6-methylpyridin-3-yl)-8-(1H-pyrazol-5-yl)-1,7-naphthyridine] | 15.3
35 | Cc1cc(-c2cc(N3CCOCC3)nc3c(-c4ccn[nH]4)nccc23)cnc1F [Example 224, 4-(6-fluoro-5-methylpyridin-3-yl)-2-(morpholin-4-yl)-8-(1H-pyrazol-5-yl)-1,7-naphthyridine] | 52.1
36 | CC(C)Oc1cc(N2CCOC[C@H]2C)nc2c(-c3cc[nH]n3)nccc12 [Example 51, 4-isopropoxy-2-((R)-3-methylmorpholin-4-yl)-8-(1H-pyrazol-3-yl)-[1,7]naphthyridine] | 38
37 | C[C@@H]1COCCN1c1cc(-c2ccnn2C2CC2)c2ccnc(-c3ccn[nH]3)c2n1 [Example 80, 4-(1-cyclopropyl-1H-pyrazol-5-yl)-2-[(3R)-3-methylmorpholin-4-yl]-8-(1H-pyrazol-5-yl)-1,7-naphthyridine] | 12.1
38 | C[C@@H]1COCCN1c1cc([C@H]2C[C@@H]2C)c2ccnc(-c3ccn[nH]3)c2n1 (stereo in doubt) [Example 171, 4-[(trans)-2-methylcyclopropyl]-2-[(3R)-3-methylmorpholin-4-yl]-8-(1H-pyrazol-5-yl)-1,7-naphthyridine] | 94.7

Same assay, conditions: tracer B, TR-FRET; read-out: ATR binding (tracer B) IC50

Row | SMILES | IC50 [nM]
39 | CC(C)Oc1cc(N2CCOC[C@H]2C)nc2c(-c3cc[nH]n3)nccc12 [Example 51, 4-isopropoxy-2-((R)-3-methylmorpholin-4-yl)-8-(1H-pyrazol-3-yl)-[1,7]naphthyridine] | 23.3
